Assay results from US20250066341A1 (CHIESI FARMACEUTICI S.P.A., priority 2021, published 2025).

Target: T1, human recombinant LPA1 expressed in CHO cells (Homo sapiens, UniProt Q92633)
T1 construct: expressed in transfected cells; host or cells: CHO cells (CHO-hLPA1 cell line)
Test: FLIPR calcium mobilization assay, LPA1 antagonism in CHO-hLPA1 cells
Format: cell-based
Conditions: inhibition of LPA EC80 Ca2+ response, 30 min pre-incubation, expressed as range of activity
Description: The effectiveness of compounds of the present invention as LPA1 antagonist can be determined at the human recombinant LPA1 expressed in CHO cells, using a FLIPR assay in 384 well format.
CHO-hLPA1 cell lines are cultured in a humidified incubator at 5% C02 in DMEM/F-12 (1:1) MIXTURE with 2 mM Glutamax, supplemented with 10% of Foetal Bovine Serum, 1 mM Sodium Pyruvate, 11 mM Hepes and 1× Penicillin/Streptomycin. […] Serial dilutions (1:3 or 1:4, 11 points CRC) of compounds are performed in 100% DMSO at 200× the final concentration. […] The final concentration of DMSO in the assay will be 0.5% in each well. Medium is removed by aspiration and cells are then incubated with 30 μl of a loading solution containing 5 μM of the cytoplasmic Ca2+ indicator Cal-520 AM in Assay Buffer containing 2.5 mM probenecid for 30 min at 37° C. incubator (cell loading). The loaded cell plates are transferred into the FLIPR instrument and calcium responses are monitored during the on-line addition protocols. For testing of compounds, after the cell loading, 10 μl/well of 4× antagonists' solution was added onto the cells. After 30 min pre-incubation (at 37° C.), 10 μl/well of 5× concentrated LPA EC80 was added and Ca2+ mobilization responses was followed during the on-line addition protocol. Intracellular peak fluorescence values subtracted by baseline fluorescence are exported and analysed to determine IC50 values, respectively. The calcium response is expressed as percentage of the maximal inhibition of the EC80 agonist response.
The raw data (peak height expressed as relative fluorescence units) are normalized and transformed into “percent of inhibition”. Curve fitting and pIC50 (−LogIC50) estimations are carried out using a four-parameter logistic model using XLfit Software.

T1 sequence (Q92633 whole entry): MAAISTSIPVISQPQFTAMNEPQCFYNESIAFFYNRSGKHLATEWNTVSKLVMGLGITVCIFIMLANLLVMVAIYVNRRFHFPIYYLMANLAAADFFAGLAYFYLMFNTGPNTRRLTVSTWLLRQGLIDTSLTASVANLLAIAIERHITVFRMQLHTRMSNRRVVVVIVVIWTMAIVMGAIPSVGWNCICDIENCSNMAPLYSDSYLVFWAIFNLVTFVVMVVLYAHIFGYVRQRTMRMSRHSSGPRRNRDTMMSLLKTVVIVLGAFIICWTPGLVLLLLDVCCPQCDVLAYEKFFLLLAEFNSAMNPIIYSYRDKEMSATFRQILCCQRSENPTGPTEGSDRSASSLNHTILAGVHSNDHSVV

SMILES | IC50
Cc1nc(-c2onc(C)c2NS(=O)(=O)CCCc2ccccc2)ccc1NC(=O)[C@H]1CCCC[C@@H]1C(=O)O [Compound 26, (1S,2S)-2-((2-methyl-6-(3-methyl-4-((3-phenylpropyl)sulfonamido)isoxazol-5-yl)pyridin-3-yl)carbamoyl)cyclohexane-1-carboxylic acid] | < 50 nM
Cc1nc(-c2onc(C)c2Nc2cncc(-c3ccccn3)n2)ccc1NC(=O)[C@H]1CCCC[C@@H]1C(=O)O [Compound 14, (1S,2S)-2-((2-methyl-6-(3-methyl-4-((6-(pyridin-2-yl)pyrazin-2-yl)amino)isoxazol-5-yl)pyridin-3-yl)carbamoyl)cyclohexane-1-carboxylic acid] | 50 to 250 nM
CC(C)Oc1cncc(Nc2c(-c3ccc(NC(=O)[C@H]4CCCC[C@@H]4C(=O)O)cc3)cnn2C)n1 [Compound 20, (1S,2S)-2-((4-(5-((6-isopropoxypyrazin-2-yl)amino)-1-methyl-1H-pyrazol-4-yl)phenyl)carbamoyl)cyclohexane-1-carboxylic acid] | 50 to 250 nM
Cc1nc(-c2onc(C)c2NS(=O)(=O)CCc2ccccc2)ccc1NC(=O)[C@H]1CCCC[C@@H]1C(=O)O [Compound 23, (1S,2S)-2-((2-methyl-6-(3-methyl-4-((2-phenylethyl)sulfonamido)isoxazol-5-yl)pyridin-3-yl)carbamoyl)cyclohexane-1-carboxylic acid] | 50 to 250 nM
Cc1nc(-c2onc(C)c2NS(=O)(=O)CC(C)c2ccccc2)ccc1NC(=O)[C@H]1CCCC[C@@H]1C(=O)O (single isomer, unassigned) [Compound 30] | < 50 nM
Cc1nc(-c2onc(C)c2NS(=O)(=O)CC(C)c2ccccc2)ccc1NC(=O)[C@H]1CCCC[C@@H]1C(=O)O (mixture of isomers) [Compound 29, rac-(1S,2S)-2-((2-methyl-6-(3-methyl-4-((2-phenylpropyl)sulfonamido)isoxazol-5-yl)pyridin-3-yl)carbamoyl)cyclohexane-1-carboxylic acid] | < 50 nM
Cc1nc(-c2onc(C)c2Nc2cncc(C3=CCCCC3)n2)ccc1NC(=O)[C@H]1CCCC[C@@H]1C(=O)O [Compound 10, (1S,2S)-2-((6-(4-((6-(cyclohex-1-en-1-yl)pyrazin-2-yl)amino)-3-methylisoxazol-5-yl)-2-methylpyridin-3-yl)carbamoyl)cyclohexane-1-carboxylic acid] | < 50 nM
Cc1nc(-c2nnn(C)c2CNC(=O)O[C@H](C)c2ccccc2Cl)ccc1NC(=O)[C@H]1CCCC[C@@H]1C(=O)O [Compound 42, (1S,2S)-2-((6-(5-(((((R)-1-(2-chlorophenyl)ethoxy)carbonyl)amino)methyl)-1-methyl-1H-1,2,3-triazol-4-yl)-2-methylpyridin-3-yl)carbamoyl)cyclohexane-1-carboxylic acid] | 250 to 600 nM
Cc1noc(-c2ccc(OC[C@H]3CCCC[C@@H]3C(=O)O)cn2)c1Nc1cncc(OCC(C)C)n1 [Compound 50, (1S,2S)-2-(((6-(4-((6-isobutoxypyrazin-2-yl)amino)-3-methylisoxazol-5-yl)pyridin-3-yl)oxy)methyl)cyclohexane-1-carboxylic acid] | < 50 nM
Cc1nc(-c2onc(C)c2CNc2nccc(-c3cccc4ccccc34)n2)ccc1NC(=O)[C@H]1CCCC[C@@H]1C(=O)O [Compound 40, (1S,2S)-2-((2-methyl-6-(3-methyl-4-(((4-(naphthalen-1-yl)pyrimidin-2-yl)amino)methyl)isoxazol-5-yl)pyridin-3-yl)carbamoyl)cyclohexane-1-carboxylic acid] | < 50 nM
Cc1nc(-c2onc(C)c2NS(=O)(=O)CCc2ccc(F)cc2)ccc1NC(=O)[C@H]1CCCC[C@@H]1C(=O)O [Compound 27] | 50 to 250 nM
Cc1nc(-c2onc(C)c2NS(=O)(=O)CCOc2ccc(F)cc2)ccc1NC(=O)[C@H]1CCCC[C@@H]1C(=O)O [Compound 25, (1S,2S)-2-((6-(4-((2-(4-fluorophenoxy)ethyl)sulfonamido)-3-methylisoxazol-5-yl)-2-methylpyridin-3-yl)carbamoyl)cyclohexane-1-carboxylic acid] | 50 to 250 nM
Cc1nc(-c2onc(C)c2CNc2nccc(-c3cccnc3)n2)ccc1NC(=O)[C@H]1CCCC[C@@H]1C(=O)O [Compound 38, (1S,2S)-2-((2-methyl-6-(3-methyl-4-(((4-(pyridin-3-yl)pyrimidin-2-yl)amino)methyl)isoxazol-5-yl)pyridin-3-yl)carbamoyl)cyclohexane-1-carboxylic acid] | < 50 nM

Further lines, results first:

IC50 | SMILES
< 50 nM | Cc1nc(-c2nnn(C)c2CNC(=O)OCc2ccccc2)ccc1OC[C@H]1CCCC[C@@H]1C(=O)O [Compound 62, (1S,2S)-2-(((6-(5-((((benzyloxy)carbonyl)amino)methyl)-1-methyl-1H-1,2,3-triazol-4-yl)-2-methylpyridin-3-yl)oxy)methyl)cyclohexane-1-carboxylic acid]
< 50 nM | Cc1nc(-c2nnn(C)c2Nc2cncc(OC(C)C)n2)ccc1OC[C@H]1CCCC[C@@H]1C(=O)O [Compound 71, (1S,2S)-2-(((6-(5-((6-isopropoxypyrazin-2-yl)amino)-1-methyl-1H-1,2,3-triazol-4-yl)-2-methylpyridin-3-yl)oxy)methyl)cyclohexane-1-carboxylic acid]
50 to 250 nM | CCOc1cncc(Nc2c(-c3ccc(OC[C@H]4CCCC[C@@H]4C(=O)O)c(C)n3)nnn2C)n1 [Compound 72, (1S,2S)-2-(((6-(5-((6-ethoxypyrazin-2-yl)amino)-1-methyl-1H-1,2,3-triazol-4-y1)-2-methylpyridin-3-yl)oxy)methyl)cyclohexane-1-carboxylic acid]
< 50 nM | CCOc1cncc(Nc2c(C)noc2-c2ccc(OC[C@H]3CCCC[C@@H]3C(=O)O)c(C)n2)n1 [Compound 51, (1S,2S)-2-(((6-(4-((6-ethoxypyrazin-2-yl)amino)-3-methylisoxazol-5-yl)-2-methylpyridin-3-yl)oxy)methyl)cyclohexane-1-carboxylic acid]
< 50 nM | Cc1nc(-c2onc(C)c2NS(=O)(=O)CCc2ccccc2)ccc1OC[C@H]1CCCC[C@@H]1C(=O)O [Compound 57, (1S,2S)-2-(((2-methyl-6-(3-methyl-4-((2-phenylethyl)sulfonamido)isoxazol-5-yl)pyridin-3-yl)oxy)methyl)cyclohexane-1-carboxylic acid]
< 50 nM | CCC[C@@H](C)OC(=O)Nc1c(-c2ccc(OC[C@H]3CCCC[C@@H]3C(=O)O)c(C)n2)nnn1C [Compound 68, (1S,2S)-2-(((2-methyl-6-(1-methyl-5-(((((R)-pentan-2-yl)oxy)carbonyl)amino)-1H-1,2,3-triazol-4-yl)pyridin-3-yl)oxy)methyl)cyclohexane-1-carboxylic acid]
< 50 nM | Cc1nc(-c2cnn(C)c2CNc2nccc(-c3ccccc3)n2)ccc1OC[C@H]1CCCC[C@@H]1C(=O)O [Compound 61, (1S,2S)-2-(((2-methyl-6-(1-methyl-5-(((4-phenylpyrimidin-2-yl)amino)methyl)-1H-pyrazol-4-yl)pyridin-3-yl)oxy)methyl)cyclohexane-1-carboxylic acid]
< 50 nM | CCOc1cncc(Nc2c(C)noc2-c2ccc(OC[C@H]3CCCC[C@@H]3C(=O)O)cn2)n1 [Compound 47, (1S,2S)-2-(((6-(4-((6-ethoxypyrazin-2-yl)amino)-3-methylisoxazol-5-yl)pyridin-3-yl)oxy)methyl)cyclohexane-1-carboxylic acid]
